Consider 13 compounds from patent publication US12208075B2, “Antimicrobial compositions containing free fatty acids” (priority 2009, dated 2025).

Usually % inhibition stands for the change of the read-out against control, counted positive when it falls. A higher % inhibition goes with a response far below the control.

For assay [1], the system named is adhesion of Candida albicans to human Buccal Epithelial Cells. Nature of the assay: microbe, parasite or virus in culture. In kind it is cell-based. As to conditions: for incremental increase in adhesion inhibitory effect achieved by de-lipidisation (in brackets): versus Table 4.
For assay [2], the system named is Staphylococcus aureus RN 4220. In words: Comparative microbicidal suspension test, free vs emulsified fatty acids. It is filed as cell-based.
Assay [3] has as its system fresh sheep blood. Nature of the assay: Blood clotting time, visual tube comparison. As to conditions: between 0.5% and […] caprylic acid emulsified in 0.5% DLL. Here is the method: Comparative measurement of accelerated clotting times is achieved using appropriate volumes of fresh blood mixed with a volume of test material, where the combined volumes totaled 5 ml in each case in a 15 ml graduated Greiner centrifuge tube (Greiner Bio-one, North Carolina, USA). Immediately after addition of fresh blood, the tubes are inverted twice to mix and allowed to stand without further agitation. Clot formation is visibly apparent when the tubes are tilted slightly, and once a clot formed its integrity was such that it would remain suspended when the tubes were inverted. In each test a 5 ml sample of fresh whole blood (undiluted) is used as a control.
Rate of blood clotting was determined using freshly aspirated sheep blood and apparatus and procedures described in the Methods section. An activated blood clotting meter was used to measure anti-clotting effects and a visual tube comparison to evaluate reduced clotting times.
Blood clotting and/or anti-clotting effects were assessed using a 20% ratio of test item to fresh blood: in practice 4.0 ml of fresh sheep blood was added to tubes containing 1.0 ml of test item, inverted twice to mix and then either left standing for visual assessment of reduced clotting time or a single drop was applied to the cuvette of an activated blood clotting apparatus for assessment of anti-clotting effect (extended time to clot formation).

The subject of assay [4] is Staphylococcus aureus. In words: Ex-vivo wound model (beef brisket). As to conditions: FIG. 10, 100 minutes exposure, 7 logs inoculum.
The subject of assay [5] is Escherichia coli. In words: Microbicidal effect of catheter locking solutions in whole blood. In kind it is cell-based. As to conditions: 20% by volume, 60 min.
For assay [6], the system named is Staphylococcus aureus. The description is as above. It is filed as cell-based. As to conditions: 20% by volume, 60 min.
Assay [7] has as its system Streptococcus epidermidis. Described as above. It is filed as cell-based. As to conditions: 20% by volume, 60 min.
Assay [8] relates to Candida albicans. Described as above. It is filed as cell-based. As to conditions: 20% by volume, 60 min.
The test system of assay [9] is Staphylococcus aureus, Streptococcus epidermidis, Escherichia coli and Candida albicans. Nature of the assay: Microbicidal effect of catheter locking solutions in whole blood, test inoculums overall. It is filed as cell-based. As to conditions: 20%, one hour in whole blood.
Assay [10] deals with fresh sheep blood. In words: Activated blood clotting time (Hemochron meter).
[11] abbreviates: 2.5 mg/ml, Table 5, de-lipidised.
[12] abbreviates: 5.0 mg/ml, Table 5, de-lipidised.
[13] abbreviates: 10 mg/ml, Table 5, de-lipidised.
Setting [14] is: Table 21, 0.5% W/V fatty acid, free or emulsified in 0.4% W/V DLL.
[15] abbreviates: Table 22, low dose, listed as Free caprylic acid 0.05%.
Setting [16] is: Table 22, low dose, listed as Free caprylic acid 0.1%.
The mark [17] stands for this setting: 2.5 mg/ml, Table 4, lipids as purchased.
The mark [18] stands for this setting: 5.0 mg/ml, Table 4, lipids as purchased.
The mark [19] stands for this setting: 10 mg/ml, Table 4, lipids as purchased.

Regarding `CC(C)=CCC[C@@H](C)[C@H]1CC[C@@]2(C)C3=C(CC[C@]12C)[C@@]1(C)CC[C@H](O)C(C)(C)[C@@H]1CC3` [DL L], in assay [1] (2.5 mg/ml, Table 5), the “% inhibition at 2.5 mg/ml” value was found to be 54%. Besides, the “Candida albicans per 100 Buccal Epithelial Cell” value is listed as 247 in [1] (setting [11]), 91 in assay [1] (setting [12]) and 49 in assay [1] (setting [13]). Moreover, in assay [1] (2.5 mg/ml), the “incremental increase in adhesion inhibitory effect achieved by de-lipidisation (in brackets)” value was “+13%”.

Turning to `CCCCCCCCCC(=O)O` [Free capric acid, capric acid], the “% Adhesion” value in [1] (Table 21) came to 90%. Besides, the “% inhibition” value in assay [1] (Table 21) is given as 10%. Besides, the “Test Count/100 BEC” value in [1] (setting [14]) was 386. The “viable count (log number)” value in assay [2] (0 Seconds at 37° C.) is on record as 6.94 log; in assay [2] (60 Seconds at 37° C.) it was 6.32 log; in assay [2] (120 Seconds at 37° C.), 6.48 log; in [2] (180 Seconds at 37° C.), 6.73 log; in [2] (240 Seconds at 37° C.), 6.36 log; in assay [2] (300 Seconds at 37° C.), 5.97 log. For the same compound, the “viable count (log number)” value in assay [2] (360 Seconds at 37° C.) was 6.11 log.

Regarding `CCCCCC(=O)O` [Free caproic acid, caproic acid], the “% Adhesion” value in assay [1] (Table 21) was found to be 89%. The “% inhibition” value in [1] (Table 21) is recorded as 11%. In assay [1] (setting [14]), the “Test Count/100 BEC” value stood at 380. In addition, the “viable count (log number)” value came out at 7.87 log in [2] (0 Seconds at 37° C.); 7.17 log in [2] (60 Seconds at 37° C.); 6.82 log in [2] (120 Seconds at 37° C.); 7.57 log in assay [2] (180 Seconds at 37° C.); 6.93 log in assay [2] (240 Seconds at 37° C.); 6.47 log in assay [2] (300 Seconds at 37° C.). Also, the “viable count (log number)” value in assay [2] (360 Seconds at 37° C.) came to 6.73 log.

In the case of `CCCCCCCC(=O)O` [Free caprylic acid, caprylic acid], the “% Adhesion” value in [1] (Table 21) was found to be 93%; in [1] (setting [15]) it was 94%; in assay [1] (setting [16]), 95%. Moreover, the entries for the “% inhibition” value in assay [1] (Table 21), in [1] (setting [15]) and in assay [1] (setting [16]) were 7%, 6% and 5%, respectively. Moreover, the “Test Count/100 BEC” value came out at 400 in assay [1] (setting [14]), 459 in assay [1] (setting [15]) and 466 in assay [1] (setting [16]). The “factor of amplification of adhesion inhibitory effect in emulsified form” value in assay [1] (emulsified versus free) turned out to be 14. In addition, in assay [3], the clotting time result is reported as “approximately 40 seconds”. Also, the “viable count (log number)” value in assay [2] (0 Seconds at 37° C.) was 6.94 log; in assay [2] (60 Seconds at 37° C.) it was 6.79 log; in [2] (120 Seconds at 37° C.), 6.83 log; in assay [2] (180 Seconds at 37° C.) it was 6.21 log; in assay [2] (240 Seconds at 37° C.), 6.33 log; in assay [2] (300 Seconds at 37° C.), 5.89 log. For the same compound, the “viable count (log number)” value in assay [2] (360 Seconds at 37° C.) was 6.17 log.

`CCCCCCCCCCCC(=O)O` [Free lauric acid, lauric acid]: in assay [1] (Table 21), the “% Adhesion” value was 95% and the “% inhibition” value was found to be 5%. In addition, in assay [1] (setting [14]), the “Test Count/100 BEC” value stood at 450.

In the case of `CCCCCCCCCCCCCC(=O)O` [Free myristic acid, myristic acid], the “% Adhesion” value in assay [1] (Table 21) was 92%. The “% inhibition” value in assay [1] (Table 21) came out at 8%. The “Test Count/100 BEC” value in assay [1] (setting [14]) was 436. Also, the “viable count (log number)” value in [2] (0 Seconds at 37° C.) is listed as 7.38 log; in assay [2] (60 Seconds at 37° C.) it was 7.27 log; in assay [2] (120 Seconds at 37° C.) it was 7.84 log; in assay [2] (180 Seconds at 37° C.) it was 6.93 log; in assay [2] (240 Seconds at 37° C.) it was 7.11 log; in assay [2] (300 Seconds at 37° C.), 6.26 log. Besides, the “viable count (log number)” value in [2] (360 Seconds at 37° C.) turned out to be 6.84 log.

Consider `CCCCCCCCC(=O)O` [Free pelargonic acid, pelargonic acid], for which the “% Adhesion” value in [1] (Table 21) was found to be 84%. Further, the “% inhibition” value in assay [1] (Table 21) is 16%. Further, in assay [1] (setting [14]), the “Test Count/100 BEC” value amounted to 360. In addition, the “viable count (log number)” value is reported as 6.94 log in assay [2] (0 Seconds at 37° C.); 6.55 log in assay [2] (60 Seconds at 37° C.); 6.31 log in [2] (120 Seconds at 37° C.); 5.96 log in assay [2] (180 Seconds at 37° C.); 5.67 log in assay [2] (240 Seconds at 37° C.); 5.83 log in assay [2] (300 Seconds at 37° C.). Besides, the “viable count (log number)” value in assay [2] (360 Seconds at 37° C.) is on record as 5.27 log.

Regarding `C=CCCCCCCCCC(=O)O` [Free undecylenic acid, undecylenic acid], in assay [1] (Table 21), the “% Adhesion” value came out at 86%. Besides, the “% inhibition” value in [1] (Table 21) worked out at 14%. Besides, the “Test Count/100 BEC” value in assay [1] (setting [14]) was determined as 448. Further, the “viable count (log number)” value in [2] (0 Seconds at 37° C.) was determined as 7.87 log; in assay [2] (60 Seconds at 37° C.), 7.19 log; in [2] (120 Seconds at 37° C.), 6.99 log; in assay [2] (180 Seconds at 37° C.), 6.57 log; in assay [2] (240 Seconds at 37° C.) it was 6.83 log; in assay [2] (300 Seconds at 37° C.), 6.67 log. Further, in assay [2] (360 Seconds at 37° C.), the “viable count (log number)” value is 6.31 log.

As for `CC(C)=CCC[C@@H](C)[C@H]1CC[C@@]2(C)C3=C(CC[C@]12C)[C@@]1(C)CC[C@H](O)C(C)(C)[C@@H]1CC3` [L, Lanosterol], the “Candida albicans per 100 Buccal Epithelial Cell” value is 306 in assay [1] (setting [17]), 236 in assay [1] (setting [18]) and 133 in [1] (setting [19]). In assay [1] (Candida albicans, Epithelial cell, read-out: % inhibition at 2.5 mg/ml), the inhibition at 2500 µg/mL is 41%.

As to `[H]/N=C(\N/C(=N/[H])NCCCCCCNC(=N)NC(=N)Nc1ccc(Cl)cc1)Nc1ccc(Cl)cc1` [chlorhexidine, chlorhexidine gluconate], the logs remaining in assay [4] was determined as 1 logs.

Turning to “Bovine Serum Albumin [BSA, reference compound]”, the “% inhibition at 2.5 mg/ml” value in [1] (2.5 mg/ml, Table 4) came out at 19%. Further, the “Candida albicans per 100 Buccal Epithelial Cell” value in [1] (setting [17]) was 400; in assay [1] (2.5 mg/ml, Table 6, water or 100 mM salt pH 4.5, with/without BSA, listed as BSA Sod′ Lactate), 408; in assay [1] (2.5 mg/ml, Table 6, water or 100 mM salt pH 4.5, with/without BSA, listed as BSA Sod′ citrate) it was 393; in assay [1] (2.5 mg/ml, Table 6, water or 100 mM salt pH 4.5, with/without BSA, listed as BSA: water), 438; in [1] (setting [18]), 379; in assay [1] (5.0 mg/ml, Table 6, listed as BSA Sod′ Lactate), 372. Moreover, the “Candida albicans per 100 Buccal Epithelial Cell” value stood at 369 in [1] (5.0 mg/ml, Table 6, listed as BSA Sod′ citrate); 400 in assay [1] (5.0 mg/ml, Table 6, listed as BSA: water); 303 in assay [1] (setting [19]); 362 in [1] (10 mg/ml, Table 6). Moreover, the “% inhibition at 5 mg/ml” value in assay [1] (Table 6, listed as BSA Sod′ Lactate) worked out at 21%; in [1] (Table 6, listed as BSA Sod′ citrate), 22%; in assay [1] (Table 6, listed as BSA: water) it was 12%. In assay [1] (Table 16), the “% Adhesion” value is on record as 83%. Also, the “% inhibition” value in assay [1] (Table 16) turned out to be 17%. Moreover, the “Count/100 BEC” value in assay [1] (Table 16, 100 mM sodium citrate pH 4.5, 0.5% Methocel, lipids 0.1%) stood at 425.

As for “DL BSA: Bovine Serum Albumin treated by the de-lipidisation procedure [reference compound]”, in assay [1] (2.5 mg/ml, Table 5), the “% inhibition at 2.5 mg/ml” value stood at 16%. For the same compound, the results for the “Candida albicans per 100 Buccal Epithelial Cell” value in [1] (setting [11]), in [1] (setting [12]) and in assay [1] (setting [13]) were 431, 393 and 329, respectively. In addition, the “incremental increase in adhesion inhibitory effect achieved by de-lipidisation (in brackets)” value in assay [1] (2.5 mg/ml) is −3%.

With Heparin, the “viable count in whole blood (log number)” value in [5] turned out to be 7.92 log; in [6], 8.39 log; in assay [7], 8.22 log; in [8], 6.94 log. Further, the “microbicidal effect in words” value in [9] was “no microbial inhibition”. Besides, the “Activated Blood Clotting Time” value came out at 284 s in [10] (5% incorporation in whole blood), 423 s in assay [10] (10% incorporation in whole blood), 601 s in [10] (15% incorporation in whole blood) and 1023 s in assay [10] (20% incorporation in whole blood).
